# From publication PMC12433258, “Binding Differences of the Peptide‐Substrate–Binding Domain of Collagen Prolyl 4‐Hydroxylases I and II for Proline‐ and Hydroxyproline‐Rich Peptides” (Proteins, 2025)
# Read-outs that look alike come from different tables or passages of the source. No end group written: not given here.
# Key:
# [1] = target: T1, PSB‐I^143–238 construct (peptide‐substrate–binding domain of C‐P4H‐I α‐subunit) (Homo sapiens, UniProt P13674); experiment: ITC binding of proline‐rich peptides to the PSB‐I^143–238 construct; details: 25°C, 20 mM Bis‐Tris, 100 mM glycine; for ΔG / ΔH / −TΔS: pH 6.8, fixed n = 1, average ± SD of three measurements
# T1 construct: made in house; host or cells: E. coli Rosetta(DE3)pLysS, pET22b(+)
# T1 sequence (P13674 160-255): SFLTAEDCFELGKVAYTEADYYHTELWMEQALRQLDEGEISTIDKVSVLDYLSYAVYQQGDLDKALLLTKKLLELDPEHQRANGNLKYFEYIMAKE
# From the text: The PSB‐I^143–238 construct was cloned using standard molecular biology protocols, and a codon‐optimized P4ha1 cDNA for the full‐length C‐P4H‐I α‐subunit (GenScript Biotech Corporation, New Jersey, USA) was used as the template. This construct was amplified using a forward primer containing an NdeI site (underlined) (5′‐[…]‐3′) and a reverse primer containing an XhoI site (underlined) (5′‐[…]‐3′). The amplified product was digested with NdeI and XhoI and ligated into a pET22b(+) plasmid (Novagen, Wisconsin, USA) in‐frame with a C‐terminal His6‐tag, and its sequence (Ser143‐Glu238 (Figure 1A), with C‐terminal Leu‐Glu‐His6–tag) was verified by DNA sequencing in the Biocenter Oulu Sequencing Centre. PSB‐I^143–238 was expressed using Rosetta(DE3)pLysS cells in LB medium containing 100 μg/mL ampicillin and 34 μg/mL chloramphenicol. The cells were grown at 37°C using a shaker at 200 rpm until the OD600 reached 0.6–0.8, after which protein expression was induced using 1‐mM isopropyl β‐D‐1‐thiogalactopyranoside and incubated at 30°C for another 4 h. The cells were harvested and resuspended in 20 mL of 20‐mM Bis‐Tris, 100 mM glycine, pH 6.8 lysis buffer. After cell lysis by sonication, the supernatant was loaded onto a 20 mL Ni‐NTA chelating Sepharose column, pre‐equilibrated with the lysis buffer. Unbound proteins were washed away with 100 mL of the same buffer, and the bound proteins were eluted with a 100 mL linear imidazole gradient (0.0–0.5 M). The eluted fractions were analyzed by SDS‐PAGE to identify PSB‐I containing fractions, which were pooled, concentrated using the Amicon ultracentrifugal filter ([…] molecular weight cut‐off) and loaded on a Superdex75 16/600 preparative grade size‐exclusion chromatography (SEC) column (GE Healthcare, Chicago, USA), pre‐equilibrated with a 20 mM Bis‐Tris, 100 mM glycine, pH 6.8, SEC buffer. Fractions with PSB‐I^143–238 of high purity, based on SDS‐PAGE analysis, were pooled and concentrated to about 22 mg/mL (measured with a NanoDrop 1000, Thermo Scientific, Waltham, USA) and stored in the SEC buffer in 100 μL aliquots at −70°C. All characterizations, crystallization, and crystal testing experiments described below were performed in the Biocenter Oulu core facilities.
# (§1) The peptides used in these studies were purchased from TAG Copenhagen A/S (Frederiksberg, Denmark). These peptides (9 residues) start with a free amino group and end with a free carboxylate group. The correct mass and the purity of the peptides (> 95% pure) were analyzed by the company using HPLC and mass spectrometry.
# The protein samples of the PSB‐I^143–238 and PSB‐II constructs were prepared at a concentration of 50 μM in SEC buffer, being 20 mM Bis‐Tris, 100 mM glycine, pH 6.8 for PSB‐I^143–238 and 20 mM Tris, 50 mM NaCl, 50 mM glycine, pH 8.0 for PSB‐II (as described earlier). The peptides were dissolved in SEC buffer at a concentration of 3 mM by diluting a 100 mM stock solution in water with SEC buffer. The ITC measurements were carried out at 25°C, using the MicroCal iTC‐200 (Malvern Panalytical Ltd., Malvern, UK). The peptide solution was titrated into a sample cell of 200 μL volume from a syringe that was rotating at 750 rpm. First, 0.4 μL of the peptide solution was injected with a duration of 0.8 s; then, 12 consecutive injections were done, each with a volume of 3 μL, a duration of 6 s, and 180 s spacing time between each injection. For each peptide, at first only buffer in the sample cell (without protein) was titrated, and data were collected as control. Then the data for the PSB sample titrated with the peptide‐containing buffer were collected. The titration data were processed with Origin 7 (OriginLab, Massachusetts, USA) specifically designed for ITC data analysis. The control data that measured the residual heat effect from the peptide dilution were subtracted from the data of the peptide titration with PSB in the sample cell. […]
# [2] = target: T2, PSB‐II^142–236 construct (peptide‐substrate–binding domain of C‐P4H‐II α‐subunit) (Homo sapiens, UniProt O15460); experiment: ITC binding of proline‐rich peptides to the PSB‐II construct; details: 25°C, 50 μM protein, 3 mM peptide, 20 mM Tris, 50 mM NaCl, 50 mM glycine, pH 8.0, one‐set‐of‐sites, fixed n = 1, average ± SD of three measurements
# T2 construct: Met-His6 (N); made in house
# T2 sequence (O15460 163-257): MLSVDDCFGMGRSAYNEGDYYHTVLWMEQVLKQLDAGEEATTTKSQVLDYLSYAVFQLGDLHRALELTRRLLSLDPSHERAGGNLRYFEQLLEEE
# From the text: Additional experiments were done with a longer PSB‐I construct, PSB‐I^144–244 (residues Phe144‐Ser244 (Figure 1A), extended by a C‐terminal Leu‐Glu‐(His)6–tag) and with the PSB‐II^142–236 construct (residues Met142‐Glu236 (Figure 1A), preceded at the N‐terminus by a Met‐His6–tag). The expression and purification protocols for the PSB‐I^144–244 construct and the PSB‐II^142–236 construct have been described earlier.
# as §1
# The protein samples of the PSB‐I^143–238 and PSB‐II constructs were prepared at a concentration of 50 μM in SEC buffer, being 20 mM Bis‐Tris, 100 mM glycine, pH 6.8 for PSB‐I^143–238 and 20 mM Tris, 50 mM NaCl, 50 mM glycine, pH 8.0 for PSB‐II (as described earlier). […] The control data that measured the residual heat effect from the peptide dilution were subtracted from the data of the peptide titration with PSB in the sample cell. The integrated data were analyzed using the one‐set‐of‐sites fitting model with a fixed stoichiometry (n = 1). […]
# C‐P4H‐I = details: cited from earlier work
# From the text: (§2) Prolines that occur in the PxGP motif cannot be hydroxylated by the C‐P4H catalytic domain, as they are in the X‐position of the XYG‐repeat and the x‐residue at the Y‐position cannot be a proline. […] Low affinity of the (Gly‐Pro‐4Hyp)5 peptide for the PSB co ...
# PSB‐I construct = details: previous C‐P4H peptide binding studies; cited from earlier work
# From the text: as §2
# PSB‐II construct = details: previous C‐P4H peptide binding studies; cited from earlier work
# From the text: as §2
# C‐P4H‐II = details: cited from earlier work
# From the text: as §2
# [3] = target: DD‐I construct (double domain construct of the α‐subunit of C‐P4H‐I); details: calorimetric binding, reported previously; read-out: Affinity (K D) for the PSB‐I domain of the DD‐I construct; cited from earlier work
# From the text: The affinity properties of the PSB‐I and PSB‐II constructs, as obtained from ITC peptide binding experiments, are shown in Table 2 and Figure S3.
# [4] = target: T2, PSB‐II^142–236 construct (peptide‐substrate–binding domain of C‐P4H‐II α‐subunit); details: ITC, data described previously, average ± SD of three measurements; cited from earlier work
ΔG [1] [kcal/mol],ΔH [1] [kcal/mol],−TΔS [1] [kcal/mol],Compound,other results
-5.60 ± 0.08,-12.7 ± 0.2,7.07 ± 0.25,C[C@H](NC(=O)[C@@H]1CCCN1C(=O)CNC(=O)[C@@H]1C[C@@H](O)CN1C(=O)[C@@H]1CCCN1)C(=O)NCC(=O)N1CCC[C@H]1C(=O)N1C[C@H](O)C[C@H]1C(=O)NCC(=O)O [POG‐PAG‐POG],"Kd ([1]; 50 μM protein in cell, 3 mM peptide in syringe, pH 6.8, one‐set‐of‐sites model, fixed n = 1, average ± SD of three measurements): 79.6 ± 9.6 µM; Kd [2]: 26.2 ± 1.9 µM"
-5.51 ± 0.02,-12.4 ± 0.5,6.86 ± 0.49,C[C@H](NC(=O)[C@@H]1CCCN1C(=O)CNC(=O)[C@@H]1CCCN1C(=O)[C@@H]1CCCN1)C(=O)NCC(=O)N1CCC[C@H]1C(=O)N1CCC[C@H]1C(=O)NCC(=O)O [PPG‐PAG‐PPG],–
–,–,–,(Gly‐Pro‐4Hyp)5 [model peptide with a hydroxyproline at the Y‐position of each tripeptide repeat],Substrate of C‐P4H‐I (C‐P4H‐I): not a substrate; Affinity for the PSB‐I construct relative to (PPG)5 (PSB‐I construct): much lower affinity than the (PPG)5 substrate peptide; Affinity for the PSB‐II construct relative to (PPG)5 (PSB‐II construct): much lower affinity than the (PPG)5 substrate peptide; Substrate of C‐P4H‐II (C‐P4H‐II): not a substrate
-5.57 ± 0.02,-13.2 ± 1.2,7.67 ± 1.17,PPGPEGPPG [PPG‐PEG‐PPG],–
-4.83 ± 0.06,-13.6 ± 1.7,8.77 ± 1.66,"PPGPPGPPG [(PPG)3, PPG‐PPG‐PPG peptide]",Kd [3]: 144 µM; K D [4]: Not detectable
-6.06 ± 0.04,-14.9 ± 0.4,8.87 ± 0.37,PPGPRGPPG [PPG‐PRG‐PPG],–
-5.59 ± 0.10,-9.5 ± 0.8,3.95 ± 0.82,"PPPPPPPPP [P9, (Pro)9 peptide]",Kd [3]: 9.8 µM; Kd [4]: > 1.5 mM
